Laboratory results reported in paper PMC7983170 (Biochemical pharmacology, 2018).

Biological target: T1, ABCG2 (Homo sapiens, UniProt Q9UNQ0)
T1 sequence (Q9UNQ0 1-655): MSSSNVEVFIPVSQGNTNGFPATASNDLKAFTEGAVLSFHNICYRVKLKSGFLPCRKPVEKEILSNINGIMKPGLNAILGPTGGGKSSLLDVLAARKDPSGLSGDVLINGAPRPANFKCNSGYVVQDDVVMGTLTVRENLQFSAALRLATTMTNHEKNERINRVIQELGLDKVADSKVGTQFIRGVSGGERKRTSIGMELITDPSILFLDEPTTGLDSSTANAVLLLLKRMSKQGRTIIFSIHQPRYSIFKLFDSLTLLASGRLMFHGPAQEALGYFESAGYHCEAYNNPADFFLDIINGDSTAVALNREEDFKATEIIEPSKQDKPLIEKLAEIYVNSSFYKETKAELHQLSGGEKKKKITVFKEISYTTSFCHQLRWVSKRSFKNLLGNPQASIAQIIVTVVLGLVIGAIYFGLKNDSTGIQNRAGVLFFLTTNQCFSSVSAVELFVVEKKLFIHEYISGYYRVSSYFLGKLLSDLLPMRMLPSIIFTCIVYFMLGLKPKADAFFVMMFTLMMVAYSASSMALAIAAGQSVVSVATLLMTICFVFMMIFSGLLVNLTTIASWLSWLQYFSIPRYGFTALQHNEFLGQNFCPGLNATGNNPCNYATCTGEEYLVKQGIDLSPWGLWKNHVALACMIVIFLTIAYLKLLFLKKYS
Assay: stimulation of vanadate-sensitive ATPase activity in membrane vesicles
Assay type: biochemical

O=C(CCCCCCNC(=O)c1cnc(N(c2ccccc2)c2ccccc2)nc1)NO [ricolinostat]
EC50: ~14.7 µM
